Measurements from patent US9078868B2, “Therapeutic agent for accelerating recovery of animal under medical treatment” (UNIVERSITY OF MIYAZAKI, priority 2010, dated 2015).
No end group written: not given here. *: point of attachment. Octanoyl = CCCCCCCC(=O)*

Test system: hospitalized animals (canines and felines) with poor physical conditions
Test: Example 3-1: repeated dose of ghrelin (analyzed together with single dose animals), compiled by disease group
Assay type: in vivo
Design: key to Degree of anger or anxiety score after administration: 1 = calm/accustomed to staff … 5 = too violent to touch, bites
Details: for BUN: animals improved/animals evaluated / Body temperature: animals improved/animals evaluated / CPK: animals improved/animals evaluated / CRE: animals improved/animals evaluated / Degree of anger: animals improved/animals evaluated / GOT: animals improved/animals evaluated / GPT: animals improved/animals evaluated / PLT: animals improved/animals evaluated / Vigor: animals improved/animals evaluated / WBC: animals improved/animals evaluated / Respiratory rate: animals improved/animals evaluated / CRP: animals improved/animals evaluated: single or repeated dose; for Respiratory rate after administration: before administration 100/min; for GPT value after administration: before administration 1000 IU/L; for Activity (vigor) score after administration / Degree of anger or anxiety score after administration: example; for Activity (vigor) score after administration: scale 1-7; for Degree of anger or anxiety score after administration: before administration a score of 5, scale 1-5
Protocol: In these Examples, a canine-derived ghrelin (a peptide compound in which a side chain hydroxyl group of the serine residue at the 3rd position from the amino terminus is acylated with an n-octanoyl group in SEQ ID NO: 1) was used as ghrelin. The canine-derived ghrelin was chemically synthesized and then lyophilized, and a canine-derived ghrelin for administration containing 0.1, 0.3, 0.5, or 1 mg per vial of a canine-derived ghrelin was prepared.
To administer ghrelin to animals, the canine-derived ghrelin was dissolved to a concentration of 1 mg/2 mL in physiological saline and intravenously, subcutaneously, or intramuscularly injected after the dose was adjusted depending on the body weight.
The evaluation parameters used were activity (vigor), body temperature, hematology parameters (blood cell test values), serum biochemistry parameters (biochemical test values), the degree of anger or anxiety, and respiratory rate. […] The degree of anger or anxiety of an animal observed visually by an observer were also evaluated using the following criteria: 1. calm and accustomed to a health care professional, 2. able to be touched by but unaccustomed to a health care professional and restless, 3. wandering around or hiding in the kennel with anxiety, 4. able to be barely touched, and 5. too violent to be touched by a health care professional and tends to bite.
A canine-derived ghrelin was repeatedly administered intravenously or subcutaneously to each of the animals with poor physical conditions. The dose of intravenous administration was approximately 5 μg/kg or 10 μg/kg, and the dose of subcutaneous administration was approximately 100 μg/kg. The mean number of doses in repeated administration was approximately four times, and the maximum number of doses was 11 times. The administration period was one to six days.
Evaluation parameters evaluated before and after administration of ghrelin were appetite, quantity of meal, biochemical test values (GOT, GPT, BUN, CRE, CPK, CRP), blood cell test values (white blood cell [WBC], platelet [PLT]), body temperature, activity (vigor), skin, coat, wellness, the degree of anger or anxiety, respiratory rate, and others. These parameters were analyzed together with the results of the animals receiving a single dose (Examples 1 and 2). The analysis results were compiled by disease, such as renal dysfunction, tumor, fracture, and accident (see Table 3-1). Statistical analysis of values before and after administration was performed using a paired t-test.

[1] = fracture, accident, etc., 19 animals
[2] = fracture, accident, etc., *p < 0.05, **p < 0.01
[3] = gastrointestinal tract disease, 7 animals
[4] = genital disease, *p < 0.05, **p < 0.01
[5] = infection or parasitism, 15 animals
[6] = infection or parasitism, *p < 0.05, **p < 0.01
[7] = inflammatory disease, 13 animals
[8] = inflammatory disease, *p < 0.05, **p < 0.01
[9] = renal dysfunction, *p < 0.05, **p < 0.01

GSS (n-octanoyl) FLSPEHQKLQQRKESKKPPAKLQPR (GSS(Octanoyl)FLSPEHQKLQQRKESKKPPAKLQPR; listed as Canis familiaris) [ghrelin, chemically synthesized, lyophilized]
BUN: animals improved/animals evaluated [1]: 6/7
Body temperature: animals improved/animals evaluated [1]: 5/7
CPK: animals improved/animals evaluated [1]: 2/2
CRE: animals improved/animals evaluated [1]: 2/3
Degree of anger: animals improved/animals evaluated [1]: 6/10
GOT: animals improved/animals evaluated [1]: 6/6
GPT: animals improved/animals evaluated [1]: 6/7
PLT: animals improved/animals evaluated [1]: 4/8
Vigor: animals improved/animals evaluated [1]: 13/16
WBC: animals improved/animals evaluated [1]: 3/7
Respiratory rate: animals improved/animals evaluated (fracture, accident, etc., 19 animals, #respiratory rate was stabilized in 2 of 2 animals): 2/2
BUN: change after vs before administration (t-test) [2]: Decreased*
Body temperature: change after vs before administration (t-test) [2]: Decreased*
CPK: change after vs before administration (t-test) [2]: Decreased*
Degree of anger: change after vs before administration (t-test) [2]: Improved*
GOT: change after vs before administration (t-test) [2]: Decreased*
GPT: change after vs before administration (t-test) [2]: Decreased*
Vigor: change after vs before administration (t-test) [2]: Improved**
BUN value after administration (fractures, accidents, etc., before administration 18.3 mg/dL): 10.6 mg/dL
Body temperature after administration (fractures, accidents, etc., before administration 39.2° C.): 38.0 °C
CPK value after administration (fractures, accidents, etc., before administration 42.4 IU/L): 9.4 IU/L
Respiratory rate after administration (fractures, accidents, etc.): 50 min⁻¹
GOT value after administration (fractures, accidents, etc., before administration 996 IU/L): 22 IU/L
GPT value after administration (fractures, accidents, etc.): 32 IU/L
Activity (vigor) score after administration (fractures, accidents, etc., before administration a score of 1): 3
Degree of anger or anxiety score after administration (fractures, accidents, etc.): 1
BUN: animals improved/animals evaluated [3]: 1/1
Body temperature: animals improved/animals evaluated [3]: 2/3
CPK: animals improved/animals evaluated [3]: 2/2
Degree of anger: animals improved/animals evaluated [3]: 0/1
GOT: animals improved/animals evaluated [3]: 3/3
GPT: animals improved/animals evaluated [3]: 3/3
PLT: animals improved/animals evaluated [3]: 0/1
Vigor: animals improved/animals evaluated [3]: 5/5
WBC: animals improved/animals evaluated [3]: 2/2
Vigor: change after vs before administration (t-test) (gastrointestinal tract disease, *p < 0.05, **p < 0.01): Improved*
Activity (vigor) score after administration (gastrointestinal tract diseases, before administration a score of 1): 5
BUN: animals improved/animals evaluated (genital disease, 29 animals): 3/3
Body temperature: animals improved/animals evaluated (genital disease, 29 animals): 11/11
CRE: animals improved/animals evaluated (genital disease, 29 animals): 1/2
CRP: animals improved/animals evaluated (genital disease, 29 animals): 5/5
Degree of anger: animals improved/animals evaluated (genital disease, 29 animals): 2/8
GOT: animals improved/animals evaluated (genital disease, 29 animals): 3/3
GPT: animals improved/animals evaluated (genital disease, 29 animals): 4/4
PLT: animals improved/animals evaluated (genital disease, 29 animals): 4/7
Respiratory rate: animals improved/animals evaluated (genital disease, 29 animals): 1/1
Vigor: animals improved/animals evaluated (genital disease, 29 animals): 13/15
WBC: animals improved/animals evaluated (genital disease, 29 animals): 5/7
BUN: change after vs before administration (t-test) [4]: Decreased*
Body temperature: change after vs before administration (t-test) [4]: Decreased**
CRP: change after vs before administration (t-test) [4]: Decreased*
Vigor: change after vs before administration (t-test) [4]: Improved**
BUN value after administration (genital diseases, before administration 31.5 mg/dL): 7.1 mg/dL
CRP value after administration (genital diseases, before administration 100 mg/dL): 16 mg/dL
Body temperature after administration (genital diseases, before administration 40.1° C.): 38.1 °C
Activity (vigor) score after administration (genital diseases, before administration a score of 1): 3
BUN: animals improved/animals evaluated [5]: 2/2
Body temperature: animals improved/animals evaluated [5]: 3/3
CPK: animals improved/animals evaluated [5]: 1/1
CRE: animals improved/animals evaluated [5]: 1/1
Degree of anger: animals improved/animals evaluated [5]: 0/2
GOT: animals improved/animals evaluated [5]: 1/2
GPT: animals improved/animals evaluated [5]: 3/4
PLT: animals improved/animals evaluated [5]: 3/4
Respiratory rate: animals improved/animals evaluated [5]: 3/3
Vigor: animals improved/animals evaluated [5]: 10/11
WBC: animals improved/animals evaluated [5]: 1/4
BUN: change after vs before administration (t-test) [6]: Decreased*
Respiratory rate: change after vs before administration (t-test) [6]: Improved*
Vigor: change after vs before administration (t-test) [6]: Improved**
BUN value after administration (infections and parasitism, before administration 23.4 mg/dL): 16.4 mg/dL
Respiratory rate after administration (infections and parasitism): 70 min⁻¹
Activity (vigor) score after administration (infections and parasitism, before administration a score of 1): 3
BUN: animals improved/animals evaluated [7]: 4/4
Body temperature: animals improved/animals evaluated [7]: 5/6
CPK: animals improved/animals evaluated [7]: 1/1
CRE: animals improved/animals evaluated [7]: 0/2
CRP: animals improved/animals evaluated [7]: 1/2
Degree of anger: animals improved/animals evaluated [7]: 2/5
GOT: animals improved/animals evaluated [7]: 3/4
GPT: animals improved/animals evaluated [7]: 4/4
PLT: animals improved/animals evaluated [7]: 2/4
Vigor: animals improved/animals evaluated [7]: 9/9
WBC: animals improved/animals evaluated [7]: 3/4
Respiratory rate: animals improved/animals evaluated (inflammatory disease, 13 animals, #respiratory rate was stabilized in 2 of 2 animals): 2/2#
BUN: change after vs before administration (t-test) [8]: Decreased*
Body temperature: change after vs before administration (t-test) [8]: Decreased*
GOT: change after vs before administration (t-test) [8]: Decreased*
GPT: change after vs before administration (t-test) [8]: Decreased*
Vigor: change after vs before administration (t-test) [8]: Improved*
BUN value after administration (inflammatory diseases, before administration 18.6 mg/dL): 10.7 mg/dL
Body temperature after administration (inflammatory diseases, before administration 39.8° C.): 38.7 °C
GOT value after administration (inflammatory diseases, before administration 149 IU/L): 25.0 IU/L
GPT value after administration (inflammatory diseases): 282 IU/L
Activity (vigor) score after administration (inflammatory diseases, before administration a score of 1): 3
BUN: animals improved/animals evaluated (renal dysfunction, 10 animals): 2/3
Body temperature: animals improved/animals evaluated (renal dysfunction, 10 animals): 2/2
CRE: animals improved/animals evaluated (renal dysfunction, 10 animals): 3/3
Degree of anger: animals improved/animals evaluated (renal dysfunction, 10 animals): 1/3
GOT: animals improved/animals evaluated (renal dysfunction, 10 animals): 0/1
GPT: animals improved/animals evaluated (renal dysfunction, 10 animals): 1/1
PLT: animals improved/animals evaluated (renal dysfunction, 10 animals): 4/5
Respiratory rate: animals improved/animals evaluated (renal dysfunction, 10 animals): 1/1
Vigor: animals improved/animals evaluated (renal dysfunction, 10 animals): 5/6
WBC: animals improved/animals evaluated (renal dysfunction, 10 animals): 5/5
CRE: change after vs before administration (t-test) [9]: Decreased*
PLT: change after vs before administration (t-test) [9]: Increased**
Vigor: change after vs before administration (t-test) [9]: Improved**
WBC: change after vs before administration (t-test) [9]: Decreased*
Serum creatinine (CRE) value after administration (renal dysfunctions, before administration 3.2 mg/dL): 1.3 mg/dL
White blood cell (WBC) count after administration (renal dysfunctions, before administration 324×10^2/μL): 13900 µL⁻¹
Activity (vigor) score after administration (renal dysfunctions, before administration a score of 2): 3
BUN: animals improved/animals evaluated (tumor, 14 animals): 2/4
Body temperature: animals improved/animals evaluated (tumor, 14 animals): 6/6
CRE: animals improved/animals evaluated (tumor, 14 animals): 2/4
CRP: animals improved/animals evaluated (tumor, 14 animals): 2/2
Degree of anger: animals improved/animals evaluated (tumor, 14 animals): 4/6
GOT: animals improved/animals evaluated (tumor, 14 animals): 3/5
GPT: animals improved/animals evaluated (tumor, 14 animals): 4/6
PLT: animals improved/animals evaluated (tumor, 14 animals): 3/6
Respiratory rate: animals improved/animals evaluated (tumor, 14 animals): 1/1
Vigor: animals improved/animals evaluated (tumor, 14 animals): 7/8
WBC: animals improved/animals evaluated (tumor, 14 animals): 3/6
Body temperature: change after vs before administration (t-test) (tumor, *p < 0.05, **p < 0.01): Decreased*
Degree of anger: change after vs before administration (t-test) (tumor, *p < 0.05, **p < 0.01): Improved*
Vigor: change after vs before administration (t-test) (tumor, *p < 0.05, **p < 0.01): Improved*
Body temperature after administration (tumors, before administration 39.8° C.): 38.6 °C
Activity (vigor) score after administration (tumors, before administration a score of 3): 6
Degree of anger or anxiety score after administration (tumors): 2
